Laboratory results published in patent US6964975B2, “Isoxazole and thiazole compounds and use thereof as medicine” (Kirin Beer Kabushiki Kaisha, priority 2000, dated 2005).

How the values were obtained:
human EDG-2 = target: T1, human EDG-2 (Homo sapiens, UniProt Q92633); experiment: Inhibitory activity on LPA-induced elevation of intracellular Ca2+ level; type: cell-based; conditions: 50% inhibition of elevation of intracellular Ca2+ level by LPA, human EDG-2/HepG2 cells, fura-2
T1 construct: cDNA of the cloned human EDG-2 was introduced into pEFneo, which is an animal expression vector; expressed in transfected cells; host or cells: HepG2
T1 sequence (Q92633 whole entry): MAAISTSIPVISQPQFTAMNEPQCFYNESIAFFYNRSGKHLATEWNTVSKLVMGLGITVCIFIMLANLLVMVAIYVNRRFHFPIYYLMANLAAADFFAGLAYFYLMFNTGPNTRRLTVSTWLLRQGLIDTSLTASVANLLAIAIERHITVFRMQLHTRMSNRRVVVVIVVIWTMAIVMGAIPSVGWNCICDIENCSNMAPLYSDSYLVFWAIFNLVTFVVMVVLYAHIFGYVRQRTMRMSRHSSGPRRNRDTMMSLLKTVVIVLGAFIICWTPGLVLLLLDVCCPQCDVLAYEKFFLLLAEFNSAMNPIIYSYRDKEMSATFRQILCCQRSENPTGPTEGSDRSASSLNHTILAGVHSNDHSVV
How it was run: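 Stably transfected HepG2 cells loaded with fura-2/AM (45 min, room temperature) in 0.1% BSA HEPES buffer. Test compound added before LPA, and the LPA-evoked intracellular Ca2+ rise measured fluorometrically. IC50 for inhibition derived.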

Human EDG-2/HepG2 cells = experiment: Inhibitory activity on LPA-accelerated [3H] thymidine incorporation (cell proliferation); type: cell-based; conditions: 50% inhibition of LPA-induced increase of [3H] thymidine incorporation
Description: The human EDG-2 expression plasmid was introduced into HepG2 cells by electroporation. After the introduction, culturing was continued while exchanging selective media every 3 to 4 days, thereby obtaining an expressed colony. Regarding these cells, Ca-influx and cell-proliferation by LPA, level of [^3H] LPA binding and the like were inspected to select a cell line which highly expresses human EDG-2 (human EDG-2/HepG2).
Human EDG-2/HepG2 cells suspended in 10% bovine serum-containing DMEM (Dulbecco's modified eagle medium) were plated on a 96-well plate and, on the next day, the medium was exchanged with serum-free DMEM. 24 hours later, the medium was exchanged with DMEM containing LPA or DMEM containing no LPA, cells were cultured for further 16 hours, and [^3H] thymidine was then added. After culturing for 8 hours subsequent to the addition of [^3H] thymidine, cells were washed with PBS (phosphate-buffered saline), and the amount of [^3H] thymidine incorporated into the cells were assayed by Betaplate filter counter system (Amersham Pharmacia Biotech). The difference between the amount of [^3H] thymidine incorporated in the LPA-added well and the amount of [^3H] thymidine incorporated in the well containing no LPA represents the amount of [^3H] thymidine incorporation accelerated by LPA. […] The test compounds were added immediately before the LPA addition.

Row | SMILES | IC50 (human EDG-2) [µM] | IC50 (Human EDG-2/HepG2 cells) [µM]
1 | CC(=O)NCCSCc1ccc(-c2onc(C)c2NC(=O)OC(C)c2ccccc2Cl)cc1 (centres unmarked) [Compound 145, 1-(2-Chlorophenyl)ethyl N-{5-[4-({[2-(acetylamino)ethyl]sulfanyl}methyl)phenyl]-3-methyl-4-isoxazolyl}carbamate] | 3 to 10 | 0.3 to 1
2 | CCc1noc(-c2ccc(CSCCC(=O)OC)cc2)c1NC(=O)OC(C)c1ccccc1Cl (centres unmarked) [Compound 146] | 3 to 10 | 0.03 to 0.3
3 | CCc1noc(-c2ccc(CSCCC(=O)O)cc2)c1NC(=O)OC(C)c1ccccc1Cl (centres unmarked) [Compound 147, 3-({4-[4-({[1-(2-Chlorophenyl)ethoxy]carbonyl}amino)-3-ethyl-5-isoxazolyl]benzyl}-sulfanyl)propanoic acid] | 3 to 10 | 0.03 to 0.1
4 | Cc1noc(-c2ccc(CSC(C)C(=O)O)cc2)c1NC(=O)OC(C)c1ccccc1Cl (centres unmarked) [Compound 148, 2-({4-[4-({[1-(2-Chlorophenyl)ethoxy]carbonyl}amino)-3-methyl-5-isoxazolyl]benzyl}-sulfanyl)propanoic acid] | 10 to 30 | 0.1 to 0.3
5 | Cc1noc(-c2ccc(CSCCNC(=O)c3ccc[nH]3)cc2)c1NC(=O)OC(C)c1ccccc1Cl (centres unmarked) [Compound 149, 1-(2-Chlorophenyl)ethyl N-(3-methyl-5-{4-[({2-[(1H-2-pyrrolylcarbonyl)amino]ethyl}-sulfanyl)methyl]phenyl}-4-isoxazolyl)carbamate] | 10 to 30 | 0.03
6 | Cc1noc(-c2ccc(CSCCS(=O)(=O)O)cc2)c1NC(=O)OC(C)c1ccccc1Cl (centres unmarked) [Compound 151, 2-({4-[4-({[1-(2-Chlorophenyl)ethoxy]carbonyl}amino)-3-methyl-5-isoxazolyl]benzyl}-sulfanyl)-1-ethanesulfonic acid] | 3 to 10 | 0.1
7 | Cc1noc(-c2ccc(CSCCCS(=O)(=O)O)cc2)c1NC(=O)OC(C)c1ccccc1Cl (centres unmarked) [Compound 152, 3-({4-[4-({[1-(2-Chlorophenyl)ethoxy]carbonyl}amino)-3-methyl-5-isoxazolyl]benzyl}-sulfanyl)-1-propanesulfonic acid] | 3 to 10 | 0.3
8 | CCc1noc(-c2ccc(CSCC(=O)OC)cc2)c1NC(=O)OC(C)c1ccccc1Cl (centres unmarked) [Compound 153, Methyl 2-({4-[4-({[1-(2-chlorophenyl)ethoxy]carbonyl}amino)-3-ethyl-5-isoxazolyl]benzyl}-sulfanyl)acetate] | 3 to 10 | 0.3
9 | CCc1noc(-c2ccc(CSCC(=O)O)cc2)c1NC(=O)OC(C)c1ccccc1Cl (centres unmarked) [Compound 154, 2-({4-[4-({[1-(2-Chlorophenyl)ethoxy]carbonyl}amino)-3-ethyl-5-isoxazolyl]benzyl}-sulfanyl)acetic acid] | 3 to 10 | 0.1 to 0.3
10 | COC(=O)CCSCc1ccc(-c2onc(C)c2NC(=O)OC(C)c2ccccc2F)cc1 (centres unmarked) [Compound 156, Methyl 3-({4-[4-({[1-(2-fluorophenyl)ethoxy]carbonyl}amino)-3-methyl-5-isoxazolyl]-benzyl}-sulfanyl)propanoate] | 10 | 0.3 to 1
11 | Cc1noc(-c2ccc(CSCCC(=O)O)cc2)c1NC(=O)OC(C)c1ccccc1F (centres unmarked) [Compound 157, 3-({4-[4-({[1-(2-Fluorophenyl)ethoxy]carbonyl}amino)-3-methyl-5-isoxazolyl]benzyl}-sulfanyl)propanoic acid] | 3 | 0.3 to 1
12 | Cc1noc(-c2cccc(CSCCS(=O)(=O)O)c2)c1NC(=O)OC(C)c1ccccc1Cl (centres unmarked) [Compound 158, 2-({3-[4-({[1-(2-Chlorophenyl)ethoxy]carbonyl}amino)-3-methyl-5-isoxazolyl]benzyl}-sulfanyl)-1-ethanesulfonic acid] | 3 to 10 | 1
13 | Cc1noc(-c2cccc(CSCCC(=O)O)c2)c1NC(=O)OC(C)c1ccccc1Cl (centres unmarked) [Compound 159, 3-({3-[4-({[1-(2-Chlorophenyl)ethoxy]carbonyl}amino)-3-methyl-5-isoxazolyl]benzyl}-sulfanyl)propanoic acid] | 3 | 0.3
14 | Cc1noc(-c2ccc(CCl)cc2)c1NC(=O)OC(c1ccccc1)C(F)(F)F (centres unmarked) [Compound 161, 2,2,2-Trifluoro-1-phenylethyl N-{5-[4-(chloromethyl)phenyl]-3-methyl-4-isoxazolyl}-carbamate] | 3 to 10 | 1 to 3
15 | COC(=O)CCSCc1ccc(-c2onc(C)c2NC(=O)OC(c2ccccc2)C(F)(F)F)cc1 (centres unmarked) [Compound 162, Methyl 3-{[4-(3-methyl-4-{[(2,2,2-trifluoro-1-phenylethoxy)carbonyl]amino}-5-isoxazolyl)-benzyl]-sulfanyl}propanoate] | 3 to 10 | 0.03 to 0.1
16 | Cc1noc(-c2ccc(CSCCC(=O)O)cc2)c1NC(=O)OC(c1ccccc1)C(F)(F)F (centres unmarked) [Compound 163, 3-{[4-(3-Methyl-4-{[(2,2,2-trifluoro-1-phenylethoxy)carbonyl]amino}-5-isoxazolyl)benzyl]-sulfanyl}propanoic acid] | 3 to 10 | 0.03 to 0.1
17 | CCc1noc(-c2ccc(CCl)cc2)c1NC(=O)OC(c1ccccc1)C(F)(F)F (centres unmarked) [Compound 164, 2,2,2-Trifluoro-1-phenylethyl N-{5-[4-(chloromethyl)phenyl]-3-ethyl-4-isoxazolyl}carbamate] | 3 to 10 | 0.3 to 1
18 | CCc1noc(-c2ccc(CSCCC(=O)OC)cc2)c1NC(=O)OC(C)c1ccccc1F (centres unmarked) [Compound 165, Methyl 3-({4-[3-ethyl-4-({[1-(2-fluorophenyl)ethoxy]carbonyl}amino)-5-isoxazolyl]-benzyl}sulfanyl)propanoate] | 3 to 10 | 0.1 to 0.3
19 | CCc1noc(-c2ccc(CSCCC(=O)OC)cc2)c1NC(=O)OC(c1ccccc1)C(F)(F)F (centres unmarked) [Compound 166, Methyl 3-{[4-(3-ethyl-4-{[(2,2,2-trifluoro-1-phenylethoxy)carbonyl]amino}-5-isoxazolyl)-benzyl]sulfanyl}propanoate] | 10 | 0.1
20 | CCc1noc(-c2ccc(CSCCC(=O)O)cc2)c1NC(=O)OC(C)c1ccccc1F (centres unmarked) [Compound 167, 3-({4-[3-Ethyl-4-({[1-(2-fluorophenyl)ethoxy]carbonyl}amino)-5-isoxazolyl]benzyl}-sulfanyl)propanoic acid] | 3 to 10 | 0.03 to 0.1
21 | CCOC(=O)COCc1ccc(-c2onc(C)c2NC(=O)OC(C)c2ccccc2Cl)cc1 (centres unmarked) [Compound 168, Ethyl 2-({4-[4-({[1-(2-chlorophenyl)ethoxy]carbonyl}amino)-3-methyl-5-isoxazolyl]-benzyl}oxy)acetate] | 3 to 10 | 1
22 | CCOC(=O)COCc1ccc(-c2onc(C)c2NC(=O)OC(c2ccccc2)C(F)(F)F)cc1 (centres unmarked) [Compound 169, Ethyl 2-{[4-(3-methyl-4-{[(2,2,2-trifluoro-1-phenylethoxy)carbonyl]amino}-5-isoxazolyl)-benzyl]oxy}acetate] | 3 to 10 | 1 to 3
